Test results from PubChem BioAssay (NCI).
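Here, GI50 denotes the concentration required for 50% inhibition of growth. The concentration for full growth arrest is given as TGI.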

Key:
Experiment in all cases: NCI tumour cell line growth inhibition, 384-well format
[1] = test system: NCI-H460 NSCLC
[2] = test system: NCI-H322M lung
[3] = test system: HOP-62 NSCLC
[4] = test system: SF-539 CNS
[5] = test system: SK-MEL-28 melanoma
[6] = test system: RXF 393 renal
[7] = test system: HCT-116 colon
[8] = test system: OVCAR-3 ovarian
[9] = test system: PC-3 prostate
[10] = test system: SNB-75 CNS
[11] = test system: BT-549 breast
[12] = test system: SR leukemia
[13] = test system: SK-OV-3 ovarian
[14] = test system: NCI-H522 lung
[15] = test system: SW-620 colon
[16] = test system: U251 glioblastoma
[17] = test system: HOP-92 NSCLC
[18] = test system: OVCAR-5 ovarian
[19] = test system: CCRF-CEM leukemia
[20] = test system: MOLT-4 leukemia
[21] = test system: SN12C renal
[22] = test system: EKVX NSCLC
[23] = test system: SK-MEL-2 melanoma
[24] = test system: M14 melanoma
[25] = test system: HL-60(TB) leukemia
[26] = test system: MDA-MB-231 breast
[27] = test system: HT29 colon
[28] = test system: MDA-MB-435 melanoma
[29] = test system: HCT-15 colon
[30] = test system: OVCAR-4 ovarian
[31] = test system: RPMI-8226 leukemia
[32] = test system: NCI-H23 lung
[33] = test system: SF-295 CNS
[34] = test system: IGROV1 ovarian
[35] = test system: HCC-2998 colon
[36] = test system: A498 renal
[37] = test system: SNB-19 CNS
[38] = test system: KM12 colon
[39] = test system: TK-10 renal
[40] = test system: HS 578T breast
[41] = test system: T-47D breast
[42] = test system: 786-0 renal
[43] = test system: DU-145 prostate
[44] = test system: SK-MEL-5 melanoma
[45] = test system: K-562 leukemia
[46] = test system: ACHN renal
[47] = test system: UACC-62 melanoma
[48] = test system: NCI-H226 lung
[49] = test system: NCI/ADR-RES ovarian
[50] = test system: SF-268 CNS
[51] = test system: MDA-MB-468 breast
[52] = test system: UACC-257 melanoma
[53] = test system: MALME-3M melanoma
[54] = test system: A549 NSCLC
[55] = test system: CAKI-1 renal
[56] = test system: COLO 205 colon
[57] = test system: MCF7 breast
[58] = test system: OVCAR-8 ovarian

In the case of C[C@@]1(c2ncncc2F)NC(=O)c2cc(-c3cn[nH]c3)ccc21, the GI50 [1] is reported as 15.5 µM, the TGI [1] is reported as 41.6 µM and the GI50 [2] is reported as 22.4 µM. It also gave a TGI [2] of 58.4 µM, a GI50 [3] of 16 µM and a TGI [3] of 50.8 µM. For the same compound, the GI50 [4] was 12.1 µM, the TGI [4] was 29.1 µM and the GI50 [5] was 11.8 µM. The TGI [5] was 27.6 µM, the GI50 [6] was 25.3 µM and the TGI [6] was 42.4 µM. The GI50 [7] was 6.88 µM, the TGI [7] was > 100 µM and the GI50 [8] was 22.2 µM. The TGI [8] was 52.4 µM, the GI50 [9] was 21.6 µM and the TGI [9] was 71.1 µM. For the same compound, the GI50 [10] was 14.1 µM, the TGI [10] was 28.4 µM and the GI50 [11] was 9.62 µM. The TGI [11] was 24.2 µM, the GI50 [12] was 2560 nM and the TGI [12] was 5.45 µM. For the same compound, the GI50 [13] was 28.9 µM, the TGI [13] was > 71.3 µM and the GI50 [14] was 4.74 µM. For the same compound, the TGI [14] was 38.6 µM, the GI50 [15] was 2030 nM and the TGI [15] was 5.93 µM. It also gave a GI50 [16] of 11.1 µM, a TGI [16] of 48.4 µM and a GI50 [17] of 19.4 µM. The TGI [17] was 47.5 µM, the GI50 [18] was 16.3 µM and the TGI [18] was 50.2 µM. For the same compound, the GI50 [19] was 2740 nM, the TGI [19] was 7.58 µM and the GI50 [20] was 13.8 µM. For the same compound, the TGI [20] was 27.8 µM, the GI50 [21] was 17.3 µM and the TGI [21] was 49.9 µM. It also gave a GI50 [22] of 16.7 µM, a TGI [22] of 42.5 µM and a GI50 [23] of 31.8 µM. It also gave a TGI [23] of 54 µM, a GI50 [24] of 5.45 µM and a TGI [24] of 22 µM. It also gave a GI50 [25] of 5.53 µM, a TGI [25] of 16.7 µM and a GI50 [26] of 14.9 µM. It also gave a TGI [26] of 33.1 µM, a GI50 [27] of 5.11 µM and a TGI [27] of 25.4 µM. It also gave a GI50 [28] of 15.7 µM, a TGI [28] of 38.3 µM and a GI50 [29] of 15.9 µM. The TGI [29] was > 83.9 µM, the GI50 [30] was 42 µM and the TGI [30] was 88.8 µM. For the same compound, the GI50 [31] was 24 µM, the TGI [31] was 41.3 µM and the GI50 [32] was 10.4 µM. For the same compound, the TGI [32] was 25.2 µM, the GI50 [33] was 28.5 µM and the TGI [33] was > 85 µM. For the same compound, the GI50 [34] was 20.5 µM, the TGI [34] was 56.1 µM and the GI50 [35] was 12.6 µM. The TGI [35] was 34.3 µM, the GI50 [36] was 10.9 µM and the TGI [36] was > 92 µM. The GI50 [37] was 28.8 µM, the TGI [37] was > 100 µM and the GI50 [38] was 15.8 µM. For the same compound, the TGI [38] was 35.1 µM, the GI50 [39] was 15.8 µM and the TGI [39] was 36 µM. For the same compound, the GI50 [40] was 18.4 µM, the TGI [40] was 35.2 µM and the GI50 [41] was 30.9 µM. It also gave a TGI [41] of 82.1 µM, a GI50 [42] of 16 µM and a TGI [42] of 35.1 µM. For the same compound, the GI50 [43] was 16.2 µM, the TGI [43] was > 100 µM and the GI50 [44] was 13 µM. The TGI [44] was 31 µM, the GI50 [45] was 11.2 µM and the TGI [45] was > 100 µM. The GI50 [46] was 20.9 µM, the TGI [46] was 69.8 µM and the GI50 [47] was 12.2 µM. For the same compound, the TGI [47] was 28.8 µM, the GI50 [48] was 18.4 µM and the TGI [48] was 60.7 µM. The GI50 [49] was 62.6 µM, the TGI [49] was > 100 µM and the GI50 [50] was 13 µM. It also gave a TGI [50] of 31 µM, a GI50 [51] of 5.03 µM and a TGI [51] of 14.4 µM. For the same compound, the GI50 [52] was 17.8 µM, the TGI [52] was 44.9 µM and the GI50 [53] was 2770 nM. For the same compound, the TGI [53] was 14.4 µM, the GI50 [54] was 17.3 µM and the TGI [54] was > 100 µM. It also gave a GI50 [55] of 20.1 µM, a TGI [55] of 63.4 µM and a GI50 [56] of 2010 nM. The TGI [56] was 4.03 µM, the GI50 [57] was 26.6 µM and the TGI [57] was > 83 µM. The GI50 [58] was 25.8 µM and the TGI [58] was 82.6 µM.
